Results on 24 molecules are retold here after patent US20100331305A1, “OXO-HETEROCYCLE FUSED PYRIMIDINE COMPOUNDS, COMPOSITIONS AND METHODS OF USE” (Genentech, Inc., priority 2009, published 2010).

One assay deals with PC3 cells. As to the kind of experiment: In vitro cell proliferation assay. It counts as cell-based, human. The note with it: Homo sapiens, PC-3, with PC3 cells; values tied to compounds by order of Table 1. Here is the method: c. In Vitro Cell Proliferation Assay Efficacy of Formula I compounds were measured by a cell proliferation assay employing the following protocol: 1. An aliquot of 20 μl of cell culture containing about 10^3 cells (PC3 or MDAMB361.1) in medium was deposited in each well of a 384-well, opaque-walled plate. 2. Control wells were prepared containing medium and without cells; Cells were allowed to settle overnight. 3. The compound was added to the experimental wells and incubated for 3 days. 4. The plates were equilibrated to room temperature for approximately 30 minutes. 5. A volume of CellTiter-Glo Reagent equal to the volume of cell culture medium present in each well was added. […] The contents were mixed for 2 minutes on an orbital shaker to induce cell lysis. 7. The plate was incubated at room temperature for 20 minutes to stabilize the luminescence signal. 8. Luminescence was recorded and reported in graphs as RLU=relative luminescence units. Alternatively, cells were seeded at optimal density in a 96 well plate and incubated for 4 days in the presence of test compound. Alamar BlueTM was subsequently added to the assay medium, and cells were incubated for 6 h before reading at 544 nm excitation, 590 nm emission. EC50 values were calculated using a sigmoidal dose response curve fit.

Assay [1] deals with mTOR enzyme (mTOR(1360-2549)+GBL) (Homo sapiens, UniProt P42345). The experiment in a line: In vitro mTOR kinase assay (TR-FRET). It counts as biochemical. To be noted: 0.25 nM mTOR+GBL, 8 uM ATP; values tied to compounds by order of Table 1; 'x or y' = two alternative values for separated diastereomers of unassigned stereochemistry; read-out: activity level (Ki) in the mTOR kinase assay. An excerpt: a. In Vitro mTOR Kinase Assay
mTOR enzyme (mTOR(1360-2549)+GBL), sequence (P42345 1360-2549, species assumed): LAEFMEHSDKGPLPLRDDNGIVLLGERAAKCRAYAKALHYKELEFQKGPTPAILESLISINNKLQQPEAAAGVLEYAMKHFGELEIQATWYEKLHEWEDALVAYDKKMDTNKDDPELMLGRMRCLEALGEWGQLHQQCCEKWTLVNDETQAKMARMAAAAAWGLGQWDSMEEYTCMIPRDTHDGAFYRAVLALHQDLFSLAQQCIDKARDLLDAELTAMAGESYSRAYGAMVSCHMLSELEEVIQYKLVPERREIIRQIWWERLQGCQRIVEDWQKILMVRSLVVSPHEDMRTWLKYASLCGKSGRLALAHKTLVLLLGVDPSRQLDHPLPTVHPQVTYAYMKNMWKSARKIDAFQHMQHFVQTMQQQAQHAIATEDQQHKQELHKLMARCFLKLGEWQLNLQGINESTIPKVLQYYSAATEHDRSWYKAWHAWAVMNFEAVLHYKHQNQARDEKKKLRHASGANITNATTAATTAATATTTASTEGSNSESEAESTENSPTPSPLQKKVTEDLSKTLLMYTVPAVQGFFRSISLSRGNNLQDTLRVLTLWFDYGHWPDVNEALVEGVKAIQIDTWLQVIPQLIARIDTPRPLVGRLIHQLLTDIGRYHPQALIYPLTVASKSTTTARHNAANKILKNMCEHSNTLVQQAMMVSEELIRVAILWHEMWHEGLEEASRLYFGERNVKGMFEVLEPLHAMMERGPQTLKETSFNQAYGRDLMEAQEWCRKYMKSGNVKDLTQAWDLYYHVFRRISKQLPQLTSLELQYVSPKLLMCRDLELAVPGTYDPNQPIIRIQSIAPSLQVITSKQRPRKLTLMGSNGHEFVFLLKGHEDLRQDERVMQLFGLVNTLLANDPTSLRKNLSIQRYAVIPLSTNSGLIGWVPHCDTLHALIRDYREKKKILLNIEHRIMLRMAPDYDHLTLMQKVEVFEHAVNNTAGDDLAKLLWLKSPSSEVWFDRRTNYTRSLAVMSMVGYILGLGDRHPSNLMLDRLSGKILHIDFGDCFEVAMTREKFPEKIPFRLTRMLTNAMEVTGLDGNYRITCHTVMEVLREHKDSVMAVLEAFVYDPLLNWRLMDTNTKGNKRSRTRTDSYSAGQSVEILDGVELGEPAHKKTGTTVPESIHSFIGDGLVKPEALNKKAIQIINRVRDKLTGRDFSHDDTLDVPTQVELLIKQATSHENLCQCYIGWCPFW
mTOR enzyme (mTOR(1360-2549)+GBL), sequence (Q9BVC4 whole entry partner, species assumed): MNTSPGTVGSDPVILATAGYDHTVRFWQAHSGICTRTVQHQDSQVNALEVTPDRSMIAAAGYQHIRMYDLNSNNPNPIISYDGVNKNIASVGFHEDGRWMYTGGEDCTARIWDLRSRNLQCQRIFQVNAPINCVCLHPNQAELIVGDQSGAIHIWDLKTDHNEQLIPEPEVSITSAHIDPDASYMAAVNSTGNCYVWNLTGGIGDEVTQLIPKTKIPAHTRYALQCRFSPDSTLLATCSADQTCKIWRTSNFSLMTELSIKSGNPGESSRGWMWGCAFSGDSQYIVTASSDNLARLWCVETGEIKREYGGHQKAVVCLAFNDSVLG
The reaction is stopped by an addition of a Terbium-labeled phospho-specific antibody, e.g., Tb-labeled anti-p4E-BP1 T37/T46, (Invitrogen, product #PR8835A), EDTA, and TR-FRET buffer solution (Invitrogen, Product #PR3756B). Product formation is detected by way of time-resolved fluorescence resonance energy transfer (TR-FRET), which occurs when the phosphorylated substrate and labeled antibody are in close proximity due to phospho-specific binding. Enzymatic activity is measured as an increase in TR-FRET signal using a Perkin Elmer Envision plate reader.
Compound activity is tested in 10 point dose curves starting at the highest final concentration of 10 uM. They are serially diluted in 100% DMSO prior to further dilution with assay buffer. […] 8 μL of solution containing 2 nM Tb-anti-p4E-BP1 antibody & 10 mM EDTA diluted TR-FRET buffer is then added and incubated for 30 minutes to stop the reaction. The plate is scanned with the Envision plate reader. Ki values are calculated in Assay Explorer using the Morrison ATP-competitive tight binding equation for Ki apparent determination.
On the technique in general: In TR-FRET formats the signal depends on donor and acceptor labels being close together.

Molecules are shown by their SMILES. pEC50, pKi: −log10 of the molar value.

In turn, `CCNC(=O)Nc1ccc(-c2nc3c(c(N4CCOC[C@@H]4CC)n2)CCCO3)cc1` [Example 2, (S)-1-ethyl-3-(4-(4-(3-ethylmorpholino)-6,7-dihydro-5H-pyrano[2,3-d]pyrimidin-2-yl)phenyl)urea] gave a pEC50 in the assay with PC3 cells of 6.84. Further, the pKi in assay [1] was 9.00.
The corresponding values for `CCNC(=O)Nc1ccc(-c2nc3c(c(N4C[C@@H]5C[C@H]4CO5)n2)CCCO3)cc1` [Example 3, 1-(4-(4-((1S,4S)-2-oxa-5-azabicyclo[2.2.1]heptan-5-yl)-6,7-dihydro-5H-pyrano[2,3-d]pyrimidin-2-yl)phenyl)-3-ethylurea] are 5.92 and 7.66.
As to `CC[C@H]1COCCN1c1nc(-c2ccc(Nc3nccc(=O)[nH]3)cc2)nc2c1COCC2` [Example 4, (S)-2-(4-(4-(3-ethylmorpholino)-7,8-dihydro-5H-pyrano[4,3-d]pyrimidin-2-yl)phenylamino)pyrimidin-4(3H)-one], in the assay on PC3 cells, the pEC50 was 7.52. For the same molecule, the pKi in assay [1] is 9.00.
The corresponding values for `CC[C@H]1COCCN1c1nc(-c2ccc(Nc3cccc(=O)[nH]3)cc2)nc2c1COCC2` [Example 5, (S)-6-(4-(4-(3-ethylmorpholino)-7,8-dihydro-5H-pyrano[4,3-d]pyrimidin-2-yl)phenylamino)pyridin-2(1H)-one] are 6.53 and 8.70.
The like results for `CCNC(=O)Nc1ccc(-c2nc3c(c(N4CCOC[C@@H]4C)n2)CCOC3)cc1` [Example 13 al, (S)-1-ethyl-3-(4-(4-(3-methylmorpholino)-6,8-dihydro-5H-pyrano[3,4-d]pyrimidin-2-yl)phenyl)urea] were, in that order, 6.71 and 8.70.
In the case of `CCNC(=O)Nc1ccc(-c2nc3c(c(N4CCOCC4)n2)CCC2(CC2)O3)cc1` [Example 14, 1-ethyl-3-(4-(4′-morpholino-5′,6′-dihydrospiro[cyclopropane-1,7′-pyrano[2,3-d]pyrimidine]-2′-yl)phenyl)urea], the pEC50 in the assay with PC3 cells was 7.08. In assay [1], the pKi was 8.52.
For `C[C@H]1COCCN1c1nc(-c2ccc(NC(=O)NCCO)cc2)nc2c1COCC2` [Example 24, (S)-1-(2-hydroxyethyl)-3-(4-(4-(3-methylmorpholino)-7,8-dihydro-5H-pyrano[4,3-d]pyrimidin-2-yl)phenyl)urea], the pEC50 in the assay on PC3 cells was 6.27. Also, the pKi in assay [1] is 8.52.
The like results for `C[C@H]1COCCN1c1nc(-c2ccc(NC(=O)NC3COC3)cc2)nc2c1COCC2` [Example 25, (S)-1-(4-(4-(3-methylmorpholino)-7,8-dihydro-5H-pyrano[4,3-d]pyrimidin-2-yl)phenyl)-3-(oxetan-3-yl)urea] were, in that order, 5.82 and 7.89.
As for `C[C@H]1COCCN1c1nc(-c2ccc(NC(=O)NC3CCC3)cc2)nc2c1COCC2` [Example 26, (S)-1-cyclobutyl-3-(4-(4-(3-methylmorpholino)-7,8-dihydro-5H-pyrano[4,3-d]pyrimidin-2-yl)phenyl)urea], the pEC50 in the assay on PC3 cells was 5.80. The pKi in assay [1] was 7.85.
The corresponding values for `Cc1nnc(NC(=O)Nc2ccc(-c3nc4c(c(N5CCOC[C@@H]5C)n3)COCC4)cc2)o1` [Example 27, (S)-1-(5-methyl-1,3,4-oxadiazol-2-yl)-3-(4-(4-(3-methylmorpholino)-7,8-dihydro-5H-pyrano[4,3-d]pyrimidin-2-yl)phenyl)urea] are 6.50 and 7.59.
Molecule `C[C@H]1COCCN1c1nc(-c2ccc(Nc3nccc(=O)[nH]3)cc2)nc2c1COCC2` [Example 28, (S)-2-(4-(4-(3-methylmorpholino)-7,8-dihydro-5H-pyrano[4,3-d]pyrimidin-2-yl)phenylamino)pyrimidin-4(3H)-one] gave a pEC50 in the assay on PC3 cells of 6.71. Also, in assay [1], the pKi was 8.70.
`C[C@H]1COCCN1c1nc(-c2ccc(Nc3cccc(=O)[nH]3)cc2)nc2c1COCC2` [Example 29, (S)-6-(4-(4-(3-methylmorpholino)-7,8-dihydro-5H-pyrano[4,3-d]pyrimidin-2-yl)phenylamino)pyridin-2(1H)-one]: in the assay on PC3 cells, the pEC50 is 6.47. Also, in assay [1], the pKi was 8.30.
The like results for `C[C@H]1COCCN1c1nc(-c2ccc(NC(=O)Nc3ccn(C)n3)cc2)nc2c1CCCO2` [Example 30, (S)-1-(1-methyl-1H-pyrazol-3-yl)-3-(4-(4-(3-methylmorpholino)-6,7-dihydro-5H-pyrano[2,3-d]pyrimidin-2-yl)phenyl)urea] were, in that order, 6.76 and 9.00.
The like results for `C[C@H]1COCCN1c1nc(-c2ccc(NC(=O)Nc3cnn(C)c3)cc2)nc2c1CCCO2` [Example 31, (S)-1-(1-methyl-1H-pyrazol-4-yl)-3-(4-(4-(3-methylmorpholino)-6,7-dihydro-5H-pyrano[2,3-d]pyrimidin-2-yl)phenyl)urea] were, in that order, 7.24 and 8.70.
The like results for `C[C@H]1COCCN1c1nc(-c2ccc(NC(=O)NC3COC3)cc2)nc2c1CCCO2` [Example 32, (S)-1-(4-(4-(3-methylmorpholino)-6,7-dihydro-5H-pyrano[2,3-d]pyrimidin-2-yl)phenyl)-3-(oxetan-3-yl)urea] were, in that order, 6.49 and 8.40.
As to `C[C@H]1COCCN1c1nc(-c2ccc(NC(=O)NCCO)cc2)nc2c1CCCO2` [Example 33, (S)-1-(2-hydroxyethyl)-3-(4-(4-(3-methylmorpholino)-6,7-dihydro-5H-pyrano[2,3-d]pyrimidin-2-yl)phenyl)urea], in the assay with PC3 cells, the negative logarithm of the EC50 (pEC50) was 6.95. In addition, the pKi in assay [1] was 9.00.
The corresponding values for `C[C@H]1COCCN1c1nc(-c2ccc(Nc3nccc(=O)[nH]3)cc2)nc2c1CCCO2` [Example 34, (S)-2-(4-(4-(3-methylmorpholino)-6,7-dihydro-5H-pyrano[2,3-d]pyrimidin-2-yl)phenylamino)pyrimidin-4(3H)-one] are 7.35 and 9.00.
As for `C[C@H]1COCCN1c1nc(-c2ccc(Nc3cccc(=O)[nH]3)cc2)nc2c1CCCO2` [Example 35, (S)-6-(4-(4-(3-methylmorpholino)-6,7-dihydro-5H-pyrano[2,3-d]pyrimidin-2-yl)phenylamino)pyridin-2(1H)-one], the pEC50 in the assay with PC3 cells is 6.63. Further, the pKi in assay [1] is 8.70.
`O=c1ccnc(Nc2ccc(-c3nc4c(c(N5CCOCC5)n3)CCC3(CC3)O4)cc2)[nH]1` [Example 42, 2-(4-(4′-morpholino-5′,6′-dihydrospiro[cyclopropane-1,7′-pyrano[2,3-d]pyrimidine]-2′-yl)phenylamino)pyrimidin-4(3H)-one] had a negative-log EC50 (pEC50) in the assay on PC3 cells of 7.25. Further, in assay [1], the pKi was 9.00.
Regarding `O=C(Nc1ccc(-c2nc3c(c(N4CCOCC4)n2)CCC2(CC2)O3)cc1)NC1COC1` [Example 43, 1-(4-(4′-morpholino-5′,6′-dihydrospiro[cyclopropane-1,7′-pyrano[2,3-d]pyrimidine]-2′-yl)phenyl)-3-(oxetan-3-yl)urea], in the assay on PC3 cells, the pEC50 was 6.41. Further, the pKi in assay [1] is 8.22.
The corresponding values for `Cn1ccc(NC(=O)Nc2ccc(-c3nc4c(c(N5CCOCC5)n3)CCC3(CC3)O4)cc2)n1` [Example 44, 1-(1-methyl-1H-pyrazol-3-yl)-3-(4-(4′-morpholino-5′,6′-dihydrospiro[cyclopropane-1,7′-pyrano[2,3-d]pyrimidine]-2′-yl)phenyl)urea] are 6.48 and 8.70.
The like results for `Cn1cc(NC(=O)Nc2ccc(-c3nc4c(c(N5CCOCC5)n3)CCC3(CC3)O4)cc2)cn1` [Example 45, 1-(1-methyl-1H-pyrazol-4-yl)-3-(4-(4′-morpholino-5′,6′-dihydrospiro[cyclopropane-1,7′-pyrano[2,3-d]pyrimidine]-2′-yl)phenyl)urea] were, in that order, 6.99 and 8.70.
The like results for `CCNC(=O)Nc1ccc(-c2nc3c(c(N4CCOC[C@@H]4C)n2)CCC2(CC2)O3)cc1` [Example 49, (S)-1-ethyl-3-(4-(4′-(3-methylmorpholino)-5′,6′-dihydrospiro[cyclopropane-1,7′-pyrano[2,3-d]pyrimidine]-2′-yl)phenyl)urea] were, in that order, 7.17 and 9.52.
`C[C@H]1COCCN1c1nc(-c2ccc(NC(=O)Nc3cnn(C)c3)cc2)nc2c1CCC1(CC1)O2` [Example 50, (S)-1-(1-methyl-1H-pyrazol-4-yl)-3-(4-(4′-(3-methylmorpholino)-5′,6′-dihydrospiro[cyclopropane-1,7′-pyrano[2,3-d]pyrimidine]-2′-yl)phenyl)urea] had a negative logarithm of the EC50 (pEC50) with PC3 cells of 7.54. Also, in assay [1], the pKi is 9.00.

Usually pEC50 stands for the EC50 on a negative log10 scale, so that one unit is a factor of ten. A low value points to a high EC50. Usually pKi stands for −log10 of the Ki, conventionally taken in molar units.
